Source: ChEMBL document CHEMBL5579831, “Discovery of novel CXCR4 inhibitors for the treatment of inflammation by virtual screening and biological evaluation” (Eur J Med Chem, 2024)
Calls of active or inactive are those of the source. The calls are words filed in the database; no cut-off is given here.

How the values were obtained:
MDA-MB-231 [1] = assay: Inhibition of CXCR4/CXCL12-mediated AKT phosphorylation in human MDA-MB-231 cells by Western blot analysis; assay type: cell-based; details: dose 0.1-100 nM
[2] = Toxicity in ip dosed mouse assessed as median lethal dose by Bliss method; assay type: organism-based; details: in vivo, read-out: LD
MDA-MB-231 [3] = assay: Inhibition of CXCR4/CXCL12 interaction in human MDA-MB-231 cells assessed as reduction in cell invasion at 100 nM measured after 24 hrs by H and E staining based matrix gel invasion assay
MDA-MB-231 [4] = assay: Inhibition of cell migration in human MDA-MB-231 cells at 100 nM measured after 24 hrs by wound healing based inverted microscopic analysis; assay type: functional
Mus musculus [5] = assay: Antiinflammatory activity in xylene-induced mouse ear swelling model assessed as reduction in inflammatory cell infiltration at 10 to 30 mg/kg, ip pretreated with xylene for 30 mins followed by compound addition and measured after 2 hrs by H and E staining based light microscopic analysis; assay type: functional, organism-based; details: dose 10-30 mg/kg
[6] = molecular target: T1, C-X-C chemokine receptor type 4 (Homo sapiens, UniProt P61073); assay: Inhibition of fluorescently labeled 12G5 antibodies binding to CXCR4 in human MDA-MB-231 cells assessed as change in fluorescence intensity incubated for 3 hrs under dark condition by FACS assay; assay type: cell-based
Mus musculus [7] = assay: Antiinflammatory activity in ip dosed xylene-induced mouse ear swelling model assessed as reduction in ear swelling pretreated with xylene for 30 mins followed by compound addition and measured after 2 hrs; assay type: functional, organism-based; details: dose 10-30 mg/kg
[8] = molecular target: T1, C-X-C chemokine receptor type 4; assay: Binding affinity to CXCR4 in human MDA-MB-231 cells assessed as increase in thermal stability at 50 to 55 degreeC at 100 nM incubated for 12 hrs by CETSA; assay type: cell-based
MDA-MB-231 [9] = assay: Cytotoxicity against human MDA-MB-231 cells assessed as reduction in cell viability at 10 uM incubated for 24 hrs by MTT assay; assay type: toxicity, cell-based; details: mda-mb-231, 24 h

T1 sequence (P61073 whole entry): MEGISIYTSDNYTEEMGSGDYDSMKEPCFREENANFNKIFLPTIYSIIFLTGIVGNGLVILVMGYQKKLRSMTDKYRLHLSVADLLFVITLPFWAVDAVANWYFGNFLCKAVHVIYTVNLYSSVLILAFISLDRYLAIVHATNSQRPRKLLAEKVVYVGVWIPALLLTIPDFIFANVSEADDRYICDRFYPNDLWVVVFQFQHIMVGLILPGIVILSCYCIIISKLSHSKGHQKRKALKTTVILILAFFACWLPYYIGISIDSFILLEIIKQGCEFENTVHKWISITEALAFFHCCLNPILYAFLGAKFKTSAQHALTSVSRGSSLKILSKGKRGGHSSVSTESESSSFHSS

Q: What does the source list for O=S(=O)(NCC1CCCO1)c1ccc(Oc2ccc(S(=O)(=O)NCC3CCCO3)cc2)cc1 (centres undefined)?
A: inhibition (MDA-MB-231 [1]): Dose-Dependent Effect; LD50 [2]: 72.6 mg/kg; inhibition (MDA-MB-231 [3]): Active; inhibition (MDA-MB-231 [4]): Active; Activity (Mus musculus [5]): Active; IC50 [6]: 254 nM; Activity (Mus musculus [7]): Dose-Dependent Effect; Activity [8]: Active; Activity (MDA-MB-231 [9]): Non-Toxic
